{"source": "patent US20190209539A1", "about": "“THIOHYDANTOIN ANDROGEN RECEPTOR ANTAGONISTS FOR THE TREATMENT OF CANCER” (Janssen Pharmaceutica NV, priority 2016, published 2019)", "key": {"GR (human)": {"target": "T1, GR (human) (Homo sapiens, UniProt P04150)", "T1 construct": "GR (human) (agonist radioligand) IM-9 cells (cytosol); endogenous in cells; host or cells: IM-9 cells (cytosol)", "T1 sequence (P04150 1-777)": "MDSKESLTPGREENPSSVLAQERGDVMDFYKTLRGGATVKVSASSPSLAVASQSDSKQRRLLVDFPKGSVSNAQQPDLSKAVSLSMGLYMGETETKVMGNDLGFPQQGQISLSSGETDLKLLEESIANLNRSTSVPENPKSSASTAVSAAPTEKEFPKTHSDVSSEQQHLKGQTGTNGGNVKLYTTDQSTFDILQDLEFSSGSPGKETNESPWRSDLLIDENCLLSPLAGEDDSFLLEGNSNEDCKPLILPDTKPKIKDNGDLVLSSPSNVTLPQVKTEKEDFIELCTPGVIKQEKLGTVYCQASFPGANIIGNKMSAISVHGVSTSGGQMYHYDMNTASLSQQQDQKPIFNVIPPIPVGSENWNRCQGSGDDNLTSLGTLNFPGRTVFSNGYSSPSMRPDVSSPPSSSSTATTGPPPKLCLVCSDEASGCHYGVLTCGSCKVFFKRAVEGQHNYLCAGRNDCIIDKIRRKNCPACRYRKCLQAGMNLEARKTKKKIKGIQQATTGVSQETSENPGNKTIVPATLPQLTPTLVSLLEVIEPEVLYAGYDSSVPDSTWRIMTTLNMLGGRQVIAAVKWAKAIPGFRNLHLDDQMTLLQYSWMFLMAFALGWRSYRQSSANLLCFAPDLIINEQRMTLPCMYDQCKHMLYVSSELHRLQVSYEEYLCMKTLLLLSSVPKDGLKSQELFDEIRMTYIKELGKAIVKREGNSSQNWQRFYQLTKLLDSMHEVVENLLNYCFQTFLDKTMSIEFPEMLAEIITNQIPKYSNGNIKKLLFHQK", "test": "Radioligand binding to GR ([3H]dexamethasone, IM-9 cells cytosol)", "experimental": "Radioligand binding assays were performed with the cell extracts and ligands as detailed below. Complete methodology is contained within the cited publications. Kd values were determined by Non-Specific Incubation Detection Method.\nGR (human) (agonist radioligand) IM-9 cells (cytosol) [^3H]dexamethasone 1.5 nM 1.5 nM triamcinolone (10 μM) 6 h 4° C. Scintillation counting (Clark, A. F et al. (1996) Invest. Ophtalmol. Vis. Sci., 37: 805-813). ER (nonselective) (human) (agonist radioligand) MCF-7 cells (cytosol) [^3H]estradiol 0.4 nM 0.2 nM 17-β-estradiol (6 μM) 20 h 4° C. Scintillation counting (Parker, G. J et al.(2000) J. Biomol. Screen., 5: 77-88).\nThe results are expressed as a percent of control specific binding measured specific binding *100 control specific binding and as a percent inhibition of control specific binding 100-(measured specific binding*100) control specific binding obtained in the presence of compoundn.\nThe IC50 values (concentration causing a half-maximal inhibition of control specific binding) and Hill coefficients (nH) were determined by non-linear regression analysis of the competition curves generated with mean replicate values using Hill equation curve fitting.\nThe inhibition constants (Ki) were calculated using the Cheng Prusoff equation:\nwherein L=concentration of radioligand in the assay, and KD=affinity of the radioligand for the receptor. […]"}, "VCaP cells": {"test_system": "VCaP cells", "test": "Prostate Cancer Cell Viability Assay-VCaP", "assay_type": "cell-based", "conditions": "Homo sapiens, 120 h, 5 days incubation, CellTiter-Glo", "experimental": "VCaP cells were counted and seeded into black 384-well plates with clear bottoms at a concentration of 125,000 cells per mL in phenol red-free DMEM containing 10% Charcoal Stripped Serum. 16 μL of the suspension was added per well and incubated for 48 h to allow the cells to adhere. After 48 hours, a 12 point serial semilog dilution of each compound was added to the cells in 16 μL at a final concentration of 100 μM to 0.0003 μM. The compounds of Formula (I) were also run in antagonist mode using 30 pM R1881 in which 8 μL of the compound was added to the cells followed by 8 μL of R1881. After 5 days of incubation at 37° C., 16 μL Of CellTiter-Glo (Promega) was added to the cells and the relative luminescence units (RLUs) of each well determined using the Envision. The percent stimulation and % inhibition were determined for each sample and plotted using GraphPad Prism."}, "LNCaP WT": {"test_system": "LNCaP WT", "test": "LNCaP Proliferation Assay (LNCaP WT)", "assay_type": "cell-based", "conditions": "Homo sapiens, 96 h, 4 days, normalized to 0.1 nM R1881 stimulation", "experimental": "(§1) LNCaP cells were expanded in RPMI 10% FBS in T150 flasks. The cells were dislodged with 0.25% Trypsin, washed in complete media, centrifuged (300 g, 3 min), and the supernatant aspirated. The cells were resuspended in RPMI phenol-red free media with 1% charcoal-stripped serum (CSS) and counted using a ViCELL (Beckman-Coulter). 7500 cells were added to each well of a white optical bottom 384-well plate and incubated for 2 days at 37° C. 5% CO2. Compound dilutions were prepared in RPMI CSS using 50 mM stock solutions and added to the cells either alone (agonist mode) or in combination with 0.1nM R1881 (antagonist mode). The plates were incubated for 4 days, followed by addition of CellTiter-Glo Luminescent Cell Viability kit reagent (Promega). The plates were placed on a shaker at 3000 rpm for 10 minutes and then read on an EnVision plate reader (Perkin Elmer) using Luminescence assay default settings. The data was analyzed, normalized to 0.1 nM R1881 stimulation, and plotted in GraphPad Prism."}, "LNCaP F876L": {"test_system": "LNCaP F876L", "test": "LNCaP Proliferation Assay (LNCaP F876L)", "assay_type": "cell-based", "conditions": "Homo sapiens, 96 h, 4 days, normalized to 0.1 nM R1881 stimulation", "experimental": "as §1"}, "rGABA-gated Cl− channel": {"target": "rGABA-gated Cl− channel", "test": "GABA-gated Cl Channel Antagonist Radioligand Binding Assay ([35S]-TBPS, cerebral cortex membranes)", "design": "species or system rat", "conditions": "3 nM [35S]-TBPS", "experimental": "GABA-gated Cl Chanel assays were performed at CEREP according to the following method. Membrane homogenates of cerebral cortex (120 μg protein) were incubated for 120 min at 22° C. with 3 nM [^35S]-TBPS in the absence or presence of the test compound in a buffer containing 50 mM Na2HPO4/KH2PO4 (pH 7.4) and 500 mM NaCl. Nonspecific binding was determined in the presence of 20 μM picrotoxinin. Following incubation, the samples were filtered rapidly under vacuum through glass fiber filters (GF/B, Packard) presoaked with 0.3% PEI and rinsed several times with ice-cold 50 mM Tris-HCl using a 96-sample cell harvester (Unifilter, Packard). The filters were dried then counted for radioactivity in a scintillation counter (Topcount, Packard) using a scintillation cocktail (Microscint 0, Packard). The results are expressed as a percent inhibition of the control radio ligand specific binding. The standard reference compound is picrotoxinin, which was tested in each experiment at several concentrations to obtain a competition curve from which its ICso was calculated. In this assay, the following representative compounds disclosed herein had recorded activities at a 10 μM single point concentration in the GABA-gated Cl-Channel Binding Assay."}}, "note": "Several values for one entry are separate records, joined by “and”; a condition that tells them apart may be missing. Equal entries are not always repeated."}
{"smiles": "CN1CCC(Oc2ccc(N3C(=S)N(c4cnc(C#N)c(C(F)(F)F)c4)C(=O)C34CCC4)cc2)CC1", "note": "[Cpd 85, 5-[8-[4-[(1-methyl-4-piperidyl)oxy]phenyl]-5-oxo-7-thioxo-6,8-diazaspiro[3.4]octan-6-yl]-3-(trifluoromethyl)pyridine-2-carbonitrile]", "values": [{"measurement": "Ki", "setting": "GR (human); Cheng Prusoff, [3H]-dexamethasone", "value": 9.9, "unit": "µM"}, {"measurement": "IC50", "setting": "GR (human); [3H]-dexamethasone 1.5 nM, IM-9 cytosol", "value": 20, "unit": "µM"}, {"measurement": "IC50", "setting": "VCaP cells", "value": 0.076, "unit": "µM"}, {"measurement": "IC50", "setting": "LNCaP WT", "value": 3.29, "unit": "µM"}, {"measurement": "IC50", "setting": "LNCaP F876L", "value": 8.87, "unit": "µM"}, {"measurement": "IC50", "setting": "rGABA-gated Cl− channel", "value": 13, "unit": "µM"}, {"measurement": "% inhibition @ 10 μM", "setting": "rGABA-gated Cl− channel; 10 μM single point", "value": "42% and 49%"}]}
